This passage reports drug sensitivity score results from the supplement of paper PMC11616607.

The first experiment relates to COV362. Put plainly: drug sensitivity score (DSS) from 5-point dose-response viability curve (DSS (area-under-curve based score)); higher = more sensitive (stronger growth inhibition or killing); extreme values may be limits of the assay. To be noted: exposure time: 72 h; concentration range: 5 concentrations over 10,000-fold range. Put shortly: (§1)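 Ovarian cancer and normal ovarian cell lines were tested in 384-well plates. Drugs were acoustically dispensed (Echo 550) in DMSO or water at five concentrations spanning a 10,000-fold range, then 1,500 cells per well were added and incubated 3 days at 37°C, 5% CO2. Viability was read by CellTiter-Glo luminescence on a PHERAstar FS. Drug sensitivity score was derived per cell line and drug with Breeze software; higher means more sensitive, zero means no response.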
For the compound `C[C@@]1(C(=O)Nc2ccc(F)nc2)CCCN1c1nc(Nc2cc(C3CC3)n[nH]2)c2cccn2n1`, the drug sensitivity score was 6.5.
The compound `Nc1nc2[nH]cc(CCc3ccc(C(=O)N[C@@H](CCC(=O)O)C(=O)O)cc3)c2c(=O)[nH]1` [Pemetrexed] yielded a drug sensitivity score of 12.7.
The compound `CCC(C)n1ncn(-c2ccc(N3CCN(c4ccc(OCC5COC(Cn6cncn6)(c6ccc(Cl)cc6Cl)O5)cc4)CC3)cc2)c1=O` (stereo unspecified) [Itraconazole] registered a drug sensitivity score of 0.6.
For the compound `NCC(=O)Nc1ccc(-n2nc(C(F)(F)F)cc2-c2ccc3c(ccc4ccccc43)c2)cc1`, the drug sensitivity score was 0.
Compound `O=C1CN2Cc3c(ccc(Cl)c3Cl)N=C2N1` [Anagrelide] yielded a drug sensitivity score of 0.
Still for that read-out and setting: next, `CN1CCC(COc2cnc(-c3cccc(Cn4nc(-c5cccc(C#N)c5)ccc4=O)c3)nc2)CC1` [Tepotinib]: 0; `Cc1cc2c(F)c(Oc3ncnn4cc(OC[C@@H](C)O)c(C)c34)ccc2[nH]1` [Brivanib]: 0; `COc1cc2c(NC3CCN(C(C)C)CC3)nc(N3CCC(F)(F)CC3)nc2cc1OCCCN1CCCC1` [UNC0642]: 0.9.
For the compound `Nc1ccn([C@@H]2O[C@H](CO)[C@@H](O)C2(F)F)c(=O)n1` [Gemcitabine], the drug sensitivity score turned out to be 8.1.
Regarding `Cc1ccc(C(=O)Nc2ccc(CN3CCN(C)CC3)c(C(F)(F)F)c2)cc1C#Cc1cnc2cccnn12` [Ponatinib], the drug sensitivity score amounted to 4.9.
In turn, `Oc1ccc2c(c1)CC[C@H](c1ccccc1)[C@@H]2c1ccc(OCCN2CCCC2)cc1` [Lasofoxifene] displayed a drug sensitivity score of 0.
Turning to `NCCNc1ccc(NCCN)c2c1C(=O)c1ccncc1C2=O` [Pixantrone], the drug sensitivity score came out at 0.
As to `COc1cc(Nc2ncc(F)c(Nc3ccc4c(n3)N(COP(=O)(O)O)C(=O)C(C)(C)O4)n2)cc(OC)c1OC` [Fostamatinib], the drug sensitivity score came out at 0.8.
For `C=CC(=O)Nc1cccc(Nc2nc(Nc3ccc(N4CCN(C(C)=O)CC4)cc3OC)ncc2C(F)(F)F)c1` [Rociletinib], the drug sensitivity score came out at 3.3.
`O=C(O)c1ccc(O)c2ncccc12` [IOX-1]: the drug sensitivity score was 0.
`CCCCCOC(=O)Nc1nc(=O)n([C@@H]2O[C@H](C)[C@@H](O)[C@H]2O)cc1F` [Capecitabine] had a drug sensitivity score of 0.
`COc1ccc2[nH]cc(/C=C3\C(=O)Nc4ccc(NC(=O)CCN5CCCCC5)cc43)c2c1`: the drug sensitivity score came out at 8.7.
As to `CNC(=O)c1nn(C)c2c1C(C)(C)Cc1cnc(Nc3ccc(N4CCN(C)CC4)cc3)nc1-2` [Milciclib], the drug sensitivity score is 5.4.
Same read-out and setting: in the case of `C[C@H]1C[C@@H]2[C@H]([C@@H](O)C[C@@]3(C)[C@H]2CC[C@]3(O)C(=O)CO)[C@@]2(C)C=CC(=O)C=C12` [Methylprednisolone] it was 1.2; in that of `CCc1c(C(=O)C(N)=O)c2c(OCC(=O)O)cccc2n1Cc1ccccc1` [Varespladib], 0; in that of `Cc1ccc(C(=O)Nc2ccc(Oc3cc4cnn(C)c4cc3-c3cn[nH]c3)c(F)c2)c(=O)n1-c1ccc(F)cc1` [Merestinib], 0.
Compound `Clc1ccccc1C(c1ccccc1)(c1ccccc1)n1cccn1` [TRAM-34] registered a drug sensitivity score of 0.
`Cc1cc(Nc2cc(N3CCN(C)CC3)nc(/C=C/c3ccccc3)n2)n[nH]1` [ENMD-2076]: the drug sensitivity score was 6.3.
Same read-out and setting: next, `O=C(Nc1cccc(Nc2ncc(Br)c(NCCc3cnc[nH]3)n2)c1)N1CCCC1` [BX-912]: 1.3; `COc1cc(OC)c(/C=C/S(=O)(=O)Cc2ccc(OC)c(NCC(=O)O)c2)c(OC)c1` [Rigosertib]: 9.8; `CCS(=O)(=O)c1cccc(-c2cc(C(=O)NC3CCN(C)CC3)c(C)c3[nH]c4ncc(C)cc4c23)c1` [TAK-901]: 1.1.
The compound `CC(C)NC(=O)COc1cccc(-c2nc(Nc3ccc4[nH]ncc4c3)c3ccccc3n2)c1` [KD025] came in with a drug sensitivity score of 0.5.
Turning to `COc1cccc(-c2ccc(NC(=O)C3=C(C(=O)O)CCC3)c(F)c2)c1` [Vidofludimus], the drug sensitivity score turned out to be 0.
In turn, `C=CCN(/C=C1/C(=O)O[C@H](COC)[C@@]2(C)C1=C(O)C(=O)C1=C2[C@H](OC(C)=O)C[C@]2(C)C(=O)CC[C@@H]12)CC=C` [Sonolisib] yielded a drug sensitivity score of 0.
For `C=C(c1ccc(C(=O)O)cc1)c1cc2c(cc1C)C(C)(C)CCC2(C)C` [Bexarotene], the drug sensitivity score worked out at 0.
Compound `CC1CCC(n2c3cnccc3c3cnc(Nc4ccc5c(n4)CCN(C(=O)CO)C5)nc32)CC1` (stereo unspecified) [AMG-925] registered a drug sensitivity score of 0.

The next experiment has as its system OV90. The description is as above. The note with it: exposure time: 72 h; concentration range: 5 concentrations over 10,000-fold range. Summed up: as §1
`C[C@@]1(C(=O)Nc2ccc(F)nc2)CCCN1c1nc(Nc2cc(C3CC3)n[nH]2)c2cccn2n1` returned a drug sensitivity score of 7.4.
Compound `Nc1nc2[nH]cc(CCc3ccc(C(=O)N[C@@H](CCC(=O)O)C(=O)O)cc3)c2c(=O)[nH]1` [Pemetrexed] registered a drug sensitivity score of 3.7.
For `CCC(C)n1ncn(-c2ccc(N3CCN(c4ccc(OCC5COC(Cn6cncn6)(c6ccc(Cl)cc6Cl)O5)cc4)CC3)cc2)c1=O` (stereo unspecified) [Itraconazole], the drug sensitivity score turned out to be 4.1.
`NCC(=O)Nc1ccc(-n2nc(C(F)(F)F)cc2-c2ccc3c(ccc4ccccc43)c2)cc1` showed a drug sensitivity score of 0.1.
In the case of `O=C1CN2Cc3c(ccc(Cl)c3Cl)N=C2N1` [Anagrelide], the drug sensitivity score came out at 0.
`CN1CCC(COc2cnc(-c3cccc(Cn4nc(-c5cccc(C#N)c5)ccc4=O)c3)nc2)CC1` [Tepotinib] returned a drug sensitivity score of 0.
The compound `Cc1cc2c(F)c(Oc3ncnn4cc(OC[C@@H](C)O)c(C)c34)ccc2[nH]1` [Brivanib] displayed a drug sensitivity score of 0.
Consider `COc1cc2c(NC3CCN(C(C)C)CC3)nc(N3CCC(F)(F)CC3)nc2cc1OCCCN1CCCC1` [UNC0642], for which the drug sensitivity score amounted to 4.4.
In the case of `Nc1ccn([C@@H]2O[C@H](CO)[C@@H](O)C2(F)F)c(=O)n1` [Gemcitabine], the drug sensitivity score came to 13.5.
Turning to `Cc1ccc(C(=O)Nc2ccc(CN3CCN(C)CC3)c(C(F)(F)F)c2)cc1C#Cc1cnc2cccnn12` [Ponatinib], the drug sensitivity score stood at 6.9.
In the case of `Oc1ccc2c(c1)CC[C@H](c1ccccc1)[C@@H]2c1ccc(OCCN2CCCC2)cc1` [Lasofoxifene], the drug sensitivity score was 0.
On the same count and under the same terms, next, `NCCNc1ccc(NCCN)c2c1C(=O)c1ccncc1C2=O` [Pixantrone]: 0.1; `COc1cc(Nc2ncc(F)c(Nc3ccc4c(n3)N(COP(=O)(O)O)C(=O)C(C)(C)O4)n2)cc(OC)c1OC` [Fostamatinib]: 2.9; `C=CC(=O)Nc1cccc(Nc2nc(Nc3ccc(N4CCN(C(C)=O)CC4)cc3OC)ncc2C(F)(F)F)c1` [Rociletinib]: 5.5.
Turning to `O=C(O)c1ccc(O)c2ncccc12` [IOX-1], the drug sensitivity score was 3.2.
